One assay has as its system (O). As to the kind of experiment: XTT cytotoxicity assay (O). The assay is classed as cell-based. Conditions: read-out: XTT (IC50) (O). As for the experimental part: The XTT assay is a non-radioactive alternative for the [^51Cr] release cytotoxicity assay. XTT is a tetrazolium salt that is reduced to a formazan dye only by metabolically active, viable cells. The reduction of XTT is measured spectrophotometrically as OD490-OD650.
After 72 hours of incubation, cells are incubated for 4 hours with the XTT reagent as per manufacturer's instructions (Cell Proliferation Kit II (XTT) Roche). Plates are read at OD490 and OD650 on a Molecular Devices SpectraMax Plus Spectrophotometer. Three wells containing the XTT reagent without cells serve as the plate blank. XTT data are reported as OD490-OD650. Averages and standard error of the mean are computed using SOFTmax Pro software ([…]).
The IC50 for the compounds is defined as the concentration of drug leading to a 50% reduction in OD490-OD650 compared to controls. The OD490-OD650 are computed by the SOFTmax PRO software (Molecular Devices) for each compound concentration. IC50 is calculated by linear regression, plotting the FAS activity as percent of control versus drug concentrations. Linear regression, best-fit line, r^2, and 95% confidence intervals are determined using Prism Version 3.0 (Graph Pad Software).
On the technique in general: Tetrazolium assays rely on reduction of a dye to a coloured formazan, in cell work by metabolically active cells.

In a further assay the test system is fatty acid oxidation. As to the kind of experiment: β-Oxidation assay, isolation of acid soluble products. Conditions: for FAO MAx: maximal fatty acid oxidation, at the concentration given under E32. The class given is cell-based. More on the design: Beta Oxidation: unit not given here. As for the experimental part: β-Oxidation Assay—Isolation of Acid Soluble Products A 24 well plate with 1 ml per well was prepared with 2.5×10^5 cells/well. The cells were incubated O/N. The next day, a solubilized palmitate solution was prepared. 50 μls of (1-^14C) Palmitic acid was added to a 2 ml centrifuge tube and dried under nitrogen gas. 2 mls of α-CD (α-Cyclodextran)-10 mg/ml in 10 mM Tris were added. This solution was incubated in a 37° C. water bath for 30 minutes. A hot mix was prepared by adding 25 μls of this solution to 2.5 μls of 200 μM Carnitine and 222.5 μls of serum free medium that is used for cells. The cells were then treated with the test compound in triplicate, and incubated at 37° C. for 60 minutes. The medium was removed and 250 μls of the hot mix were added. The test compound was added again, and further incubated at 37° C. for 60 minutes. The reaction was stopped with 50 μls of 2.6 N HClO4. The contents of the plate were transferred to a 1.5 ml centrifuge tube, and 50 μls of 4N KOH were then added, and the tube incubated in a 60° C. water bath for 30 min. Sodium acetate (1M, 75 μls) and sulfuric acid (3N, 50 μls) were added to the solution and vortexed. The tube was spun for 7 minutes at 1000 rpm at room temperature. A portion (225 μls) was removed, and the following were added (vortex after each addition, twice at the end): 938 μls of 1:1 Chloroform:Methanol; 468 μls of Chloroform; 281 μls distilled Water. The tubes were spun at 1000 rpm for 5 minutes. The upper phase was removed into a large glass scintillation vial and 5 mls of Budget solvent (scintillation liquid) was added. The tubes were well vortexed. Finally, C14 was counted for one minute.

Data on 3 compounds can be found in patent publication US20090005435A1, “Novel Compounds, Pharmaceutical Compositions Containing Same, and Methods of Use for Same” (priority 2004, published 2009).

Broadly, the IC50 is the concentration needed to halve the response being measured.

Values after ≈ are worked out from the molar mass of the structure shown. Values joined by “and” are separate entries in the source; they are usually repeats but may differ in a detail not shown here. Identical values can stand only once.

With `C=CCC1(CC=C)C(=O)SC(C)(CCCCCCCCCC)C1=O` (stereo not drawn) [Compound 15, 3,3-Diallyl-5-methyl-5-decyl-thiophene-2,4-dione], the IC50 in the assay on (O) was greater than 80 mg/L. Further, the “FAO MAx, concentration at maximum” value in the assay on fatty acid oxidation came to 25 µg/mL. For the same compound, the “FAO SC 150” value in the assay with fatty acid oxidation amounted to 16.0 µg/mL. Also, the “Beta Oxidation” value in the assay with fatty acid oxidation (0.097 ug/ml) worked out at 105; in the assay with fatty acid oxidation (0.39 ug/ml), 114; in the assay with fatty acid oxidation (1.56 ug/ml) it was 127; in the assay with fatty acid oxidation (6.25 ug/ml), 138; in the assay on fatty acid oxidation (25 ug/ml) it was 165; in the assay with fatty acid oxidation (100 ug/ml), 150. Besides, the “FAO MAx” value in the assay on fatty acid oxidation came to 165%.

As for `CCCCCCCCCCC1(C)SC(=O)C(C)(C)C1=O` (stereo not drawn) [Compound 12, 3,3,5-Trimethyl-5-decyl-thiophene-2,4-dione], in the assay on (O), the IC50 was greater than 80 mg/L. Also, the “FAO MAx, concentration at maximum” value with fatty acid oxidation came out at 1.56 µg/mL. The “FAO SC 150” value in the assay on fatty acid oxidation is 1.4 µg/mL. In addition, the “Beta Oxidation” value in the assay with fatty acid oxidation (0.097 ug/ml) is 100; in the assay with fatty acid oxidation (0.39 ug/ml) it was 120; with fatty acid oxidation (1.56 ug/ml) it was 154; in the assay on fatty acid oxidation (6.25 ug/ml), 141; in the assay with fatty acid oxidation (25 ug/ml), 75; in the assay with fatty acid oxidation (100 ug/ml), 68. The “FAO MAx” value in the assay with fatty acid oxidation was 154%.

In the case of `C=CCC1(CC=C)C(=O)SC(C)(CCCCCCCC)C1=O` (racemic) [Compound 4, 3,3-Diallyl-5-methyl-5-octyl-thiophene-2,4-dione], in the assay on (O), the IC50 was 53.7 ± 1 mg/L (≈ 167 µM). Besides, the “Beta Oxidation” value is 94 and 151 with fatty acid oxidation (1.25 ug/ml); 114 and 163 in the assay on fatty acid oxidation (2.5 ug/ml); 120 and 154 and 177 in the assay on fatty acid oxidation (5 ug/ml); 163 and 177 and 184 with fatty acid oxidation (10 ug/ml); 147 in the assay with fatty acid oxidation (20 ug/ml); 101 in the assay with fatty acid oxidation (40 ug/ml).
